In data set [1] the test system is osteosarcoma xenograft. Details: method as in PMID 25483883. The settings on record: dosed daily at 100 mg/kg; cited from earlier work.
Data set [2] has as its system LC3. Details: method as in PMID 25483883. The settings on record: cited from earlier work.
Data set [3] addresses T1, ATG4B (Homo sapiens, UniProt Q9Y4P1).
T1 sequence (Q9Y4P1 1-393): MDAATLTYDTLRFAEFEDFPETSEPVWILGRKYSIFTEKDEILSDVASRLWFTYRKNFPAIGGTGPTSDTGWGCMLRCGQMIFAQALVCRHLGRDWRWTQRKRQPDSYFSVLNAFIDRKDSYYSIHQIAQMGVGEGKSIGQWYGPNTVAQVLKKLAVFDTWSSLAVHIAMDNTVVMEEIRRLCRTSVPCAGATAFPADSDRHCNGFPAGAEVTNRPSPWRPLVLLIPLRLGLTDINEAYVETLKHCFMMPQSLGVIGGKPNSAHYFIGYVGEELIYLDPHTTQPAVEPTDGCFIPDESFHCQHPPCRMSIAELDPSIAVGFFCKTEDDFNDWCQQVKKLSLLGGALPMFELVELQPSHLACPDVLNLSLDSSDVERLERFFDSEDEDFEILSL
Description: Fluorimetric ATG4B enzymatic assay with fluorescent peptide substrate pim-FG-PABA-AMC. It is filed as biochemical. The settings on record: up to 175 µM. As to the method:
100 μL of immobilized TCEP in deionized water was diluted in 2.50 mL of buffer (50 mM Tris, 35 mM NaCl, pH = 8). The sample was centrifuged at 10,000 × g during 1 min. The supernatant was removed. This operation was done two more times. […] The solution was incubated on a carousel at 4 °C for 1 h. This solution was then diluted with 2.06 mL of buffer (50 mM Tris, 35 mM NaCl, 5 mM EDTA, pH 8), centrifuged at 10,000 × g during 1 min and the supernatant, containing the activated ATG4B (1 µM), was kept. A 96-well all-black plate was loaded where each well was charged with 55 µL of inhibitor at different concentrations (0 µM to 100 µM or 200 µM) in buffer/DMSO 41:3 (v/v) and 20 μL of enzyme or buffer were dispensed using a dispenser (Biotek). Plate was incubated for 30 min. A single read was done using excitation and emission wavelengths of 350/450 nm. 25 µL of peptide substrate (pim-FG-PABA-AMC)[52] (final assay concentration 100 µM) was dispensed using a dispenser (Biotek). Experiments were performed in triplicate except when it is mentioned. Fluorescent reads were performed using the Synergy 4 (Biotek) at 25 °C using excitation and emission wavelengths of 350/450 nm every 15 min for 2 h.

For data set [4], the system named is MDA-MB-231 cells. In words: Lysotracker Red fluorescence assay. It is filed as cell-based. The settings on record: CQ 40 µM, LV-320 120 µM; 24 hours.
Description: For each experiment, media was replenished every day after initial plating and before treatment. At the end of the experiment the cells were fixed in 4% PFA for 20 minutes and then rinsed with PBS. Cells were then mounted using SlowFade Gold Antifade with DAPI (Invitrogen). For Lysotracker Red®(LTR) experiments, parental MDA-MB-231 cells were incubated with 50 µM of LTR for 5 min in the dark CO2 incubator, rinsed with PBS and fixed with 4% PFA for 20 min. Fixed cells were incubated in DRAQ5 (1:500) in PBS and 100 µg/mL RNaseA for 10 minutes at room temperature before being mounted with SlowFade Gold Antifade (Invitrogen). Leica TCS SP8 inverted confocal microscope with a Leica HC PL APO 63x/1.40 oil objective and LAS AF software (Leica) were used for imaging the cells. For each treatment, the number of green, red and yellow (i.e. red/green overlap where applicable) puncta per cell were determined for at least 100 cells. Puncta counting was performed using the OpenCV Python package; a contours discovery algorithm[66] was applied to images pre-processed by filtering colors and applying a Gaussian filter and adaptive threshold.
The subject of data set [5] is SKBR3 cells. Description: DQ-BSA assay for lysosomal activity. The class given is cell-based. The settings on record: CQ 20 µM; LV-320 75 and 100 µM. As to the method: A DQ-BSA assay was used to determine lysosomal degradative activity as described. […] All samples contained equal concentration of DMSO (0.5%) in regular growth media (Gibco DMEM + 10% FBS + 20 mM HEPES + 1X NEAA). […] Data were analyzed using FlowJo software.

The target in data set [6] is T2, caspase-3 (Homo sapiens, UniProt P42574).
T2 construct: purchased Abcam ab102491
T2 sequence (P42574 29-175 limits assumed): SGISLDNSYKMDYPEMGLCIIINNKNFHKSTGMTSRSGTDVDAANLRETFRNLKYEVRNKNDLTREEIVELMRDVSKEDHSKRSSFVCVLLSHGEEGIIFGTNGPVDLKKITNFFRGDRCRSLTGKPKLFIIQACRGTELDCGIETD
T2 sequence (P42574 176-277 limits assumed): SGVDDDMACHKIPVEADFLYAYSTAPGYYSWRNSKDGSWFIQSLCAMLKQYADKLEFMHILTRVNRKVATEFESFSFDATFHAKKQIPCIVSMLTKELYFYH
Description: Caspase 3 assay (Abcam inhibitor kit). The class given is biochemical. As to the method:
Inhibition of caspase 3 was assayed using the Abcam Caspase 3 Inhibitor Drug Detection Kit (ab102491) according to the manufacturer’s protocol.

Data set [7] has as its target T3, Cathepsin B (Homo sapiens, UniProt P07858).
T3 construct: Cathepsin B (human, recombinant, active - BioVision #7580-5); purchased BioVision #7580-5
Description: Cathepsin B assay. The class given is biochemical. The settings on record: concentrations up to 60 µM. As to the method:
The assay was performed essentially as described by Mendieta et al.[60] with Cathepsin B (human, recombinant, active - BioVision #7580-5), Substrate Z-Arg-Arg-AMC (Sigma C5429) and 1 µM Z-VAD-FMK (Adooq #A12373) as positive inhibition control.
The assay was maintained at 37 °C and monitored every 2 min for 16 min at 348 nm/440 nm (excitation/emission).

In data set [8] the test system is SKBR3, MCF7, JIMT1 and MDA-MB-231 cells. In words: Endogenous LC3B-II and p62 western blot in breast cancer cell lines. It is filed as cell-based.
Data set [9] has as its system MDA-MB-231 cells. In words: Autophagic flux and GABARAP western blot in MDA-MB-231 cells. The class given is cell-based. As to the method:
Corresponding mean LC3B-II/actin values were determined using densitometry analysis; error bars, SEM (n = 3). […] Autophagic flux assay using saturating (40 nM) concentrations of bafilomycin A1 (Baf A1) was applied for the assessment of LC3B-II accumulation. […] Corresponding mean LC3B-II/actin values were determined using densitometry analysis; n = 3; error bars, SEM; *p < 0.05. […] The control ATG4B-KO JIMT-1 cells showing the location of pro-LC3B are in lane 3. Samples were run on a 4–12% Bis-tris gradient gel. The banding pattern shown is representative of 3 independent experiments. […] Addition of bafilomycin A1 (Baf A1; 40 nM) or Wortmannin (1 µM) during the final 4 h of treatment had no effect. The GABARAP-II/actin values were determined using densitometry analysis; n = 3; error bars, SEM; *p < 0.05, Student’s t-test.

The subject of data set [10] is MDA-MB-231 cells stably expressing mRFP-EGFP-LC3B. In words: mRFP-EGFP-LC3B puncta assay of starvation-induced autophagic flux. It is filed as cell-based. The settings on record: 120 µM for 48 hours; starved conditions. An excerpt: Since GFP fluorescence is quenched in acid environments, but red fluorescence is preferentially retained, autolysosomes are indicated by red puncta whereas autophagosomes are indicated by yellow puncta, or the overlap of both red and green fluorescence. In starved control scramble-siRNA treated cells, abundant red puncta were detected as expected, indicating high levels of autophagic flux (Fig. 6a). […] To determine if LV-320 affects lysosomal degradation, we performed a DQ-BSA assay. DQ-Red BSA is a self-quenched fluorescent substrate that enters the cell through endocytosis and fluoresces upon lysosomal degradation.
For each experiment, media was replenished every day after initial plating and before treatment. At the end of the experiment the cells were fixed in 4% PFA for 20 minutes and then rinsed with PBS. Cells were then mounted using SlowFade Gold Antifade with DAPI (Invitrogen). […] For each treatment, the number of green, red and yellow (i.e. red/green overlap where applicable) puncta per cell were determined for at least 100 cells. […] LTR fluorescent intensity was measured by the mean gray value from the unadjusted images taken with the same microscope settings of the LTR channel and subtracting the mean background using Image J 1.45 s (https://imagej.nih.gov/ij/) with cells counted by DRAQ5 positive nuclei.

The nature of data set [11]: Pharmacokinetic assay, oral dosing. The class given is in vivo, BL/6 mice. As to the method: Blood samples (approximately 50 µL) were collected at predetermined intervals. Blood samples were placed into tubes containing sodium heparin and centrifuged at 10000 × g for 14 min to obtain the plasma samples.
Data set [12] is described as follows: In vivo autophagy assay in GFP-LC3 mice. The settings on record: female, GFP-LC3, mouse, 4 h after last dose, 100 or 200 mg/kg oral, 3 doses over two days. As to the method:
(§1) GFP–LC3 mice were kindly provided by Dr. Mizushima (Tokyo Medical and Dental University, Japan)[67]. […]. The treatment was given by oral gavage. Four hours after the last dose the mice were terminated, blood samples were collected and the livers were harvested for the analysis.
(§2) After treatment, mouse liver tissues were collected and fixed with 4% paraformaldehyde dissolved in 0.1 M Na-phosphate buffer (pH 7.4) for 4 h, incubated overnight with 15% sucrose/PBS, and 30% sucrose/PBS for 4 h. Tissues were then embedded in OCT compound (Tissue-Tek) and stored at −80 °C. Liver OCT blocks were sectioned into 6 μm slides and countered stained with DAPI-containing mounting medium. Five randomly selected fields from each sample were examined (scorer was blinded) under 40x oil lens of the confocal microscope. Z-stack images were taken from each field with fixed settings at the laser power and exposure time for all samples. Green for GFP-LC3 and blue for nucleus (DAPI). The percentage of GFP-LC3 puncta positive cells from 5 fields were calculated for each sample; and 6 samples from each treatment condition were grouped for statistical analysis. Six animals per treatment group were used based on results in previous studies validating this method as a way to quantify GFP-LC3 puncta.

In data set [13] the test system is GFP-LC3 mice. In words: In vivo autophagy assay in GFP-LC3 mice. The settings on record: 3 doses. As to the method:
as §1, §2

The test system of data set [14] is JIMT-1 cells. Description: LC3B-II versus pro-LC3B western blot in JIMT-1 cells. The settings on record: 75 µM; 24 h. In general terms: In western blotting, separated proteins are transferred to a membrane and probed.
Description: To further confirm that the increase in LC3B-II represented a block in autophagy flux, the levels of endogenous LC3B-II were quantitated in the presence and absence of bafilomycin A1 (Baf A1).
Membranes were blocked in 2% milk and incubated in primary antibodies overnight at 4 °C. Primary antibodies were diluted in 2% milk and included: p62 (1:1000; Sigma, ref: P0067), LC3B (1:1000; Abcam, ref: ab48394), GABARAP (1:1000; Abcam, ref: ab109364), beta-actin (1:10000; Abcam, ref: ab6276), and vinculin (1:1000; Abcam, ref: ab129002). Membranes were then washed with 1X PBS-T (0.1%), incubated in HRP-conjugated secondary antibodies and detected using Bio-Rad Clarity Western ECL substrate and the electronic Bio-Rad ChemiDoc MP System. Densitometry was performed using Image Lab software (Bio-Rad), and the relative levels of LC3B-II were determined by first normalizing to the actin loading controls then to the DMSO controls.

Like-named read-outs stand apart in the source and are kept apart here.

Regarding `S=C(Nc1ccccn1)c1ccccn1` [NSC 185058, N-pyridin-2-ylpyridine-2-carbothioamide], in data set [1], the tumor growth result is “ability to inhibit tumor growth”. In [2], the “activation and lipidation of LC3 in cells” value was “inhibiting activation and lipidation of LC3 in cells”.

As to `CCN(CC)CCCC(C)Nc1ccnc2cc(Cl)ccc12` (stereo not drawn) [chloroquine, reference compound], the “inhibition of activity of purified ATG4B” value in [3] is listed as “did not show significant inhibition”. The “LTR fluorescence intensity relative to vehicle” value in data set [4] was “statistically significant decrease”. The “DQ-Red BSA fluorescence (lysosomal degradation)” value in data set [5] is on record as “significantly reduced”.

As a reminder, the inhibition is the percentage by which the read-out fell short of the control. A low value points to little suppression. In data set [6], `O=C(O)CCSC(SCCc1ccccc1)c1ccc(/C=C/c2ccnc3cc(Cl)ccc23)cc1` (stereo not drawn) [LV-320] displayed an inhibition at 60 µM of 6%. The “inhibition of cathepsin B” value in data set [7] is recorded as 32%. The p62 level result in data set [8] is given as “dose-dependent increase”. Moreover, the “concentration at which LC3B-II changes first detected” value in [8] (all four cell lines) lay in the range of 50 to 75 µM. For the same compound, the “endogenous LC3B-II levels” value in data set [8] (all four cell lines) was “dose-dependent increase”. In data set [9] (120 µM for 24 h), the GABARAP levels result was “significant decrease”. Besides, in data set [9] (120 µM for 48 hours, Baf A1 40 nM), the “autophagic flux (LC3B-II with and without Baf A1)” value is “blocks autophagic flux”. For the same compound, in data set [10], the “formation of red puncta (autolysosomes)” value is recorded as “significantly blocked”. The “DQ-Red BSA fluorescence (lysosomal degradation)” value in data set [5] was “no significant effect”. In addition, the results for the “maximum concentration in plasma” value in data set [11] (100 mg/kg oral) and in data set [11] (200 mg/kg oral) were 210 ± 50 µM and 280 ± 20 µM, respectively. Further, in data set [11] (female, BL/6, mouse, plasma, 100 and 200 mg/kg oral, read-out: time of maximum concentration), the Tmax is 1 h. The “dose proportionality of blood levels” value in data set [11] (oral 30, 100 and 200 mg/kg) is recorded as “dose proportional up to 100 mg/kg but somewhat less so at 200 mg/kg”. For the same compound, the concentration at 4 h in [12] (blood, read-out: terminal blood levels) was 169 ± 23 µM; in data set [12] (liver, read-out: liver levels) it was 104 ± 26 µM. For the same compound, the “toxicity of treatment regimens” value in [13] (100 and 200 mg/kg oral) is given as “did not cause significant toxicity”. The “GFP-LC3 puncta in liver versus controls” value in data set [13] (100 or 200 mg/kg oral) is listed as “significantly greater accumulation”. Moreover, in [13] (100 or 200 mg/kg oral), the “LC3B-II protein in liver versus vehicle controls” value is “increased”. Also, in data set [14], the “LC3B-II versus pro-LC3B accumulation” value was “accumulation of LC3B-II but not pro-LC3B”.

The values above are taken from paper PMC6076261, “A new quinoline-based chemical probe inhibits the autophagy-related cysteine protease ATG4B” (Scientific Reports, 2018).
